In experiment [1] the target is T1, M-phase inducer phosphatase 2 (Homo sapiens, UniProt P30305).
T1 sequence (P30305 whole entry): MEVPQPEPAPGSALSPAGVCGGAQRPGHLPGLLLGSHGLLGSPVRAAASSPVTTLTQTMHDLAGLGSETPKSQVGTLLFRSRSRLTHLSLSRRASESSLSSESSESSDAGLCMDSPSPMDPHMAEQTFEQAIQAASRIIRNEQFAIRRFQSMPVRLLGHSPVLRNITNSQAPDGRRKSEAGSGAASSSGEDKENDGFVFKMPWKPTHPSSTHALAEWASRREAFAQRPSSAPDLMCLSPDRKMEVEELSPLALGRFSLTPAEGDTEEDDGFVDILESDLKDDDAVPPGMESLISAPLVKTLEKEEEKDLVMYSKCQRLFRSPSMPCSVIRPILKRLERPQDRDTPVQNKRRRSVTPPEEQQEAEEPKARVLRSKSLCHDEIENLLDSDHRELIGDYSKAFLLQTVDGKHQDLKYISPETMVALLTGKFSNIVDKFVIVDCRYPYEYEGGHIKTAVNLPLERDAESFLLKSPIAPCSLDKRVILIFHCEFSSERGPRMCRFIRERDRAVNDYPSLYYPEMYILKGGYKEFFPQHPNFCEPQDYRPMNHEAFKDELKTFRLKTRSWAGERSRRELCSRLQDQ
Kind of experiment: Inhibition of N-terminal 6xHis-tagged (378-566) catalytic domain of Cdc25B expressed in Escherichia coli after 20 mins by fluorescent plate reader assay.

For experiment [2], the target named is T2, M-phase inducer phosphatase 1 (Homo sapiens, UniProt P30304).
T2 sequence (P30304 whole entry): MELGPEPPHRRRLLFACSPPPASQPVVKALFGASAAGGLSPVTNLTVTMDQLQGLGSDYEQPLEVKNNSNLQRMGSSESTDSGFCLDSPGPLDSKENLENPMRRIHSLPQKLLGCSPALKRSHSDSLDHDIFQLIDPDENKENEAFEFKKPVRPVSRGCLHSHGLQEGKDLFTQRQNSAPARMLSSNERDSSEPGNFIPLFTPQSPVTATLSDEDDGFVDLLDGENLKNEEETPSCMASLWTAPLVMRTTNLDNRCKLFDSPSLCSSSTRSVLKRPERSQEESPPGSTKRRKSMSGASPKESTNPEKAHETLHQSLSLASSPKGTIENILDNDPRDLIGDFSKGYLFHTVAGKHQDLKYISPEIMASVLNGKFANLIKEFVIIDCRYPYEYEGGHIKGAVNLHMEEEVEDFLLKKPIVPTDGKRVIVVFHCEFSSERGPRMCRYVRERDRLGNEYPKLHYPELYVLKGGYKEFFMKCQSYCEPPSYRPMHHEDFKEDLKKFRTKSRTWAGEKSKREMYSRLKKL
In words: Inhibition of N-terminal 6xHis-tagged human Cdc25A (336-523) catalytic domain expressed in Escherichia coli after 20 mins by fluorescent plate reader assay.

As usually defined, the IC50 is the concentration that inhibits the measured activity by half. Read a high IC50 as a need for much substance. For `C=Cn1c(SCC(=O)c2ccc(Cl)cc2)nnc1-c1ccco1`, the IC50 in experiment [1] amounted to 5.2 µM; in experiment [2], 14.5 µM.
Take `Cn1cccc1/C=C1\SC(Nc2ccc(Cl)cc2)=NC1=O`: the IC50 in experiment [1] amounted to 3.1 µM; in experiment [2], 15.4 µM.
The corresponding values for `Cn1c(SCC(=O)c2ccc(-c3ccccc3)cc2)nnc1-c1ccncc1` are 4.2 µM and 13.1 µM.
On to `O=C1N=C(Nc2cccc(O)c2)S/C1=C\c1cccs1`, for which the IC50 came out at 2.8 µM in experiment [1] and 7.8 µM in experiment [2].
On to `CC(=C/c1ccccc1)/C=C1\SC(Nc2cc(Cl)cc(Cl)c2)=NC1=O`, for which the half-inhibitory concentration (IC50) in experiment [1] was 1.2 µM; in experiment [2], 5.1 µM.
For the compound `Cn1cccc1/C=C1\SC(Nc2ccc(F)cc2)=NC1=O`, the figures for the IC50 in experiment [1] and in experiment [2] were 3.7 µM and 14.3 µM, respectively.
Regarding `Cn1c(SCC(=O)c2ccc([N+](=O)[O-])cc2)nnc1-c1cccc(Cl)c1`, the results for the IC50 in experiment [1] and in experiment [2] were 4.4 µM and 11.1 µM, respectively.
Take `Cc1ccc(-c2nnc(SCC(=O)c3ccc(O)c(O)c3)n2-c2ccccc2)cc1`: the IC50 in experiment [1] was found to be 2.5 µM; in experiment [2] it was 7.1 µM.
For `O=C1N=C(Nc2ccccc2Cl)S/C1=C\C=C\c1ccco1`, the IC50 came out at 2.1 µM in experiment [1] and 10.1 µM in experiment [2].
Turning to `Cn1c(SCC(=O)c2ccc([N+](=O)[O-])cc2)nnc1-c1cccc(NC(=O)c2ccccc2F)c1`, the half-inhibitory concentration (IC50) in experiment [1] turned out to be 5.4 µM; in experiment [2] it was 19 µM.
As for `Cn1c(SCC(=O)c2ccc(-c3ccccc3)cc2)nnc1-c1ccco1`, the IC50 in experiment [1] was found to be 2 µM; in experiment [2], 13 µM.
`Cc1ccc(-c2nnc(SCC(=O)c3ccc(O)c(O)c3)n2Cc2ccco2)cc1`: the IC50 in experiment [1] was found to be 2.3 µM; in experiment [2], 4.7 µM.
For `CC(=C/c1ccccc1)/C=C1\SC(Nc2cccc(Cl)c2)=NC1=O`, the figures for the IC50 in experiment [1] and in experiment [2] were 3.3 µM and 12.8 µM, respectively.
Taken in the same sequence, the figures for `COc1ccc(-n2c(SCC(=O)c3ccc(O)c(O)c3)nnc2-c2ccc(C)cc2)cc1` were 4.7 µM and 9.2 µM.
On to `O=C1N=C(Nc2cccc(Cl)c2Cl)S/C1=C\C=C\c1ccco1`, for which the IC50 in experiment [1] is 2.1 µM; in experiment [2], 6.2 µM.
The corresponding values for `CCn1c(SCC(=O)c2ccc(Cl)cc2)nnc1-c1cccnc1` are 6 µM and 17.2 µM.
For `CC(=C/c1ccccc1)/C=C1\SC(Nc2ccc(Br)cc2)=NC1=O`, the IC50 in experiment [1] turned out to be 5.1 µM; in experiment [2], 17.3 µM.
Taken in the same sequence, the figures for `O=C1N=C(Nc2cc(Cl)cc(Cl)c2)S/C1=C\c1c[nH]c2ccccc12` were 2.3 µM and 12.7 µM.
As to `O=C1N=C(Nc2ccc(Cl)cc2Cl)S/C1=C\C=C\c1ccco1`, the results for the half-inhibitory concentration (IC50) in experiment [1] and in experiment [2] were 4.5 µM and 6.7 µM, respectively.
Taken in the same sequence, the figures for `CC(=C/c1ccccc1)/C=C1\SC(Nc2ccc(C)c(C)c2)=NC1=O` were 2.3 µM and 8.1 µM.
With `Cc1ccc(/N=C2N=C(O)/C(=C/C=C/c3ccco3)S\2)cc1C`, the values for the IC50 in experiment [1] and in experiment [2] were 1.8 µM and 7.1 µM, respectively.
Take `O=C1N=C(Nc2ccc(F)cc2)S/C1=C\c1cccs1`: the IC50 was determined as 8.9 µM in experiment [1] and 30.7 µM in experiment [2].
As to `O=C(CSc1nnc(-c2ccc(Cl)cc2)n1-c1ccccc1)c1ccc(O)c(O)c1`, the IC50 was 1.6 µM in experiment [1] and 11.5 µM in experiment [2].
Taken in the same sequence, the figures for `Oc1nc(Nc2ccc(Cl)cc2Cl)sc1/C=C1\C=Nc2ccccc21` were 2.6 µM and 12.6 µM.
For the compound `CC(=C/c1ccccc1)/C=C1\SC(Nc2ccccc2Cl)=NC1=O`, the results for the IC50 in experiment [1] and in experiment [2] were 3.9 µM and 10.3 µM, respectively.
Consider `O=C1N=C(Nc2cc(Cl)cc(Cl)c2)S/C1=C\C=C\c1ccco1`, for which the concentration for half-maximal inhibition (IC50) in experiment [1] stood at 2.3 µM; in experiment [2] it was 4.1 µM.
With `O=C1N=C(Nc2cccc(Br)c2)S/C1=C\C=C\c1ccco1`, the IC50 was determined as 2.7 µM in experiment [1] and 7.7 µM in experiment [2].
On to `O=C1N=C(Nc2ccc(Cl)cc2)S/C1=C\c1cccs1`, for which the values for the IC50 in experiment [1] and in experiment [2] were 4.4 µM and 11.1 µM, respectively.
Take `COc1ccc(-c2nnc(SCC(=O)c3ccc(O)c(O)c3)n2-c2ccccc2)cc1`: the IC50 in experiment [1] worked out at 1.7 µM; in experiment [2], 6 µM.
`O=C1N=C(Nc2cccc(Cl)c2)S/C1=C\C=C\c1ccco1`: the IC50 in experiment [1] came out at 3.2 µM; in experiment [2] it was 9.1 µM.
